In ChEMBL document CHEMBL1201862, “PubChem BioAssay data set” (2004):
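Step 1: Grow cells in 96-well plates. Step 2: Expose to compound for 48 hours at 5 concentrations. Step 3: Interpolate endpoints linearly; if unreached, use highest concentration. GI50 is the concentration that inhibits growth by half.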 Active and inactive are the calls of the source. No stated cut-off is given here; in the data, active = GI50 up to about 1.1 µM and inactive = higher.

Experiments:
Assay in all cases: growth of human tumour cells (NCI), 48 h
HL-60 = tested on: HL-60
OVCAR-5 = tested on: OVCAR-5
IGROV-1 = tested on: IGROV-1
HOP-92 = tested on: HOP-92
NCI-H522 = tested on: NCI-H522
Hs-578T = tested on: Hs-578T
DU-145 = tested on: DU-145
K562 = tested on: K562
OVCAR-3 = tested on: OVCAR-3
HCT-116 = tested on: HCT-116
SR = tested on: SR
NCI-H460 = tested on: NCI-H460
MDA-MB-435 = tested on: MDA-MB-435
SF-539 = tested on: SF-539
U-251 = tested on: U-251
HOP-62 = tested on: HOP-62
SK-OV-3 = tested on: SK-OV-3
HT-29 = tested on: HT-29
EKVX = tested on: EKVX
A549 = tested on: A549

Structure (SMILES)	GI50 (HL-60)	GI50 (OVCAR-5)	GI50 (IGROV-1)	GI50 (HOP-92)	GI50 (NCI-H522)	GI50 (Hs-578T)	GI50 (DU-145)	GI50 (K562)	GI50 (OVCAR-3)	GI50 (HCT-116)	GI50 (SR)	GI50 (NCI-H460)	GI50 (MDA-MB-435)	GI50 (SF-539)	GI50 (U-251)	GI50 (HOP-62)	GI50 (SK-OV-3)	GI50 (HT-29)	GI50 (EKVX)	GI50 (A549)
N=C(N)SCc1ccc(Cl)c2ccccc12.O=[N+]([O-])c1ccc(O)c([N+](=O)[O-])c1	2.82 µM (inactive)	13.5 µM (inactive)	14.2 µM (inactive)	6.67 µM (inactive)	7.78 µM (inactive)	20.7 µM (inactive)	12.9 µM (inactive)	0.421 µM (active)	8.95 µM (inactive)	13.4 µM (inactive)	1.04 µM (active)	7.55 µM (inactive)	8.24 µM (inactive)	5.2 µM (inactive)	11.4 µM (inactive)	14.1 µM (inactive)	15.3 µM (inactive)	11.4 µM (inactive)	10.3 µM (inactive)	16.9 µM (inactive)
CC(C)(C)OC(=O)[C@@H]1CCC(=O)N1C1(c2ccccc2)c2ccccc2-c2ccccc21	37.2 µM (inactive)	93.1 µM (inactive)	56.4 µM (inactive)	26.3 µM (inactive)	26.9 µM (inactive)	33.5 µM (inactive)	97.1 µM (inactive)	41 µM (inactive)	27.4 µM (inactive)	37.8 µM (inactive)	38.5 µM (inactive)	30.5 µM (inactive)	30.1 µM (inactive)	17.1 µM (inactive)	25.7 µM (inactive)	58.5 µM (inactive)	> 100 µM (inactive)	23.7 µM (inactive)	82.8 µM (inactive)	35.2 µM (inactive)
CC(C)(C)NNc1c([N+](=O)[O-])cnn(-c2ccccc2)c1=O	1.34 µM (inactive)	8.81 µM (inactive)	20.4 µM (inactive)	6.5 µM (inactive)	1.77 µM (inactive)	7.76 µM (inactive)	12.8 µM (inactive)	0.942 µM (active)	2.59 µM (inactive)	2.46 µM (inactive)	1.58 µM (inactive)	7.36 µM (inactive)	1.81 µM (inactive)	13.2 µM (inactive)	3.2 µM (inactive)	8.63 µM (inactive)	9.02 µM (inactive)	2.84 µM (inactive)	9.14 µM (inactive)	15.3 µM (inactive)
CCOC(=O)C(c1c[nH]c2ccccc12)(c1c[nH]c2ccccc12)c1c[nH]c2ccccc12	15.9 µM (inactive)	55 µM (inactive)	33.3 µM (inactive)	37 µM (inactive)	27 µM (inactive)	23.7 µM (inactive)	39.8 µM (inactive)	12.9 µM (inactive)	27.5 µM (inactive)	29.2 µM (inactive)	23.6 µM (inactive)	27.3 µM (inactive)	18.7 µM (inactive)	42.4 µM (inactive)	36.9 µM (inactive)	39.6 µM (inactive)	30.1 µM (inactive)	34.4 µM (inactive)	37.7 µM (inactive)	30.7 µM (inactive)
CC1=C(/C=C/C(=O)O)C(C)(C)CCC1	> 100 µM (inactive)	> 100 µM (inactive)	> 100 µM (inactive)	> 100 µM (inactive)	> 100 µM (inactive)	> 100 µM (inactive)	> 100 µM (inactive)	> 100 µM (inactive)	> 100 µM (inactive)	> 100 µM (inactive)	> 100 µM (inactive)	> 100 µM (inactive)	> 100 µM (inactive)	> 100 µM (inactive)	> 100 µM (inactive)	> 100 µM (inactive)	> 100 µM (inactive)	> 100 µM (inactive)	> 100 µM (inactive)	> 100 µM (inactive)
CCN(C(=O)N[C@H](C(=O)N[C@@H](C)C(=O)OC)C(C)C)c1ccccc1	23.4 µM (inactive)	> 100 µM (inactive)	28.1 µM (inactive)	24 µM (inactive)	19 µM (inactive)	32.9 µM (inactive)	> 100 µM (inactive)	24 µM (inactive)	51.2 µM (inactive)	22.5 µM (inactive)	31.2 µM (inactive)	24 µM (inactive)	21.2 µM (inactive)	19.2 µM (inactive)	28.9 µM (inactive)	> 100 µM (inactive)	> 100 µM (inactive)	38.8 µM (inactive)	> 100 µM (inactive)	> 100 µM (inactive)
N#Cc1nc(COCCOCc2ccccc2)oc1N	> 100 µM (inactive)	> 100 µM (inactive)	> 100 µM (inactive)	> 100 µM (inactive)	23 µM (inactive)	> 100 µM (inactive)	> 100 µM (inactive)	> 100 µM (inactive)	> 100 µM (inactive)	> 100 µM (inactive)	> 100 µM (inactive)	> 100 µM (inactive)	> 100 µM (inactive)	> 100 µM (inactive)	> 100 µM (inactive)	> 100 µM (inactive)	> 100 µM (inactive)	> 100 µM (inactive)	> 100 µM (inactive)	> 100 µM (inactive)
O=P(NC12CC3CC(CC(C3)C1)C2)(N1CC1)N1CC1	3.09 µM (inactive)	> 100 µM (inactive)	> 92.9 µM (inactive)	18.5 µM (inactive)	25.7 µM (inactive)	89.3 µM (inactive)	6.31 µM (inactive)	37.6 µM (inactive)	> 86.1 µM (inactive)	43.7 µM (inactive)	2.05 µM (inactive)	2.46 µM (inactive)	> 100 µM (inactive)	15.9 µM (inactive)	27.4 µM (inactive)	12.8 µM (inactive)	> 55.5 µM (inactive)	21.2 µM (inactive)	> 100 µM (inactive)	26.5 µM (inactive)
COc1cc(OC)c(C2(c3c(OC(C)C)c(=O)c3=O)SCCCS2)cc1OC	> 100 µM (inactive)	> 100 µM (inactive)	> 100 µM (inactive)	> 100 µM (inactive)	> 100 µM (inactive)	> 100 µM (inactive)	> 100 µM (inactive)	> 100 µM (inactive)	> 100 µM (inactive)	> 100 µM (inactive)	> 100 µM (inactive)	> 100 µM (inactive)	> 100 µM (inactive)	> 100 µM (inactive)	> 100 µM (inactive)	> 100 µM (inactive)	> 100 µM (inactive)	> 100 µM (inactive)	> 100 µM (inactive)	> 100 µM (inactive)
COC(=O)Cc1cc2c(cc1C(=O)c1ccc(N)cc1)OCO2	2.36 µM (inactive)	6.46 µM (inactive)	0.625 µM (active)	2.37 µM (inactive)	0.228 µM (active)	2.26 µM (inactive)	4.11 µM (inactive)	0.553 µM (active)	0.755 µM (active)	1.77 µM (inactive)	0.117 µM (active)	12.2 µM (inactive)	0.169 µM (active)	2.9 µM (inactive)	3.05 µM (inactive)	3.84 µM (inactive)	2.94 µM (inactive)	1.09 µM (active)	4.03 µM (inactive)	3.62 µM (inactive)
CCc1nc(N)nc(N)c1-c1ccc2nn(-c3ccccc3)[n+]([O-])c2c1	0.902 µM (active)	14 µM (inactive)	1.67 µM (inactive)	8.91 µM (inactive)	2.83 µM (inactive)	17.9 µM (inactive)	6.14 µM (inactive)	0.203 µM (active)	7.62 µM (inactive)	0.396 µM (active)	1.35 µM (inactive)	0.361 µM (active)	1.27 µM (inactive)	3.7 µM (inactive)	2.58 µM (inactive)	5.82 µM (inactive)	39.1 µM (inactive)	1.26 µM (inactive)	7.96 µM (inactive)	0.378 µM (active)
